Data published in patent publication US6699877B2 (Gruenenthal GmbH, priority 2000, dated 2004).

biological target: T1, glycine binding site of the NMDA receptor channel (Rattus norvegicus, UniProt P35439); test: Receptor binding, displacement of (3H)-MDL 105.519 on rat cerebral membrane homogenates; conditions: 10 μmol/l test substance; 1 nmol/l (3H)-MDL 105.519; read-out: Displacement (%, 10 μmol/l) of radioactive ligand from specific binding
T1 construct: from tissue; host or cells: rat brain cortex and hippocampus membrane homogenate
Protocol: Receptor Binding (Glycine Binding Site of the NMDA Receptor Channel)
Experiments to determine the affinity of the compounds according to the invention of Formula I to the glycine binding site of the NMDA receptor channel were carried out on cerebral membrane homogenates (homogenate of Cortex- and Hippocampus-Areal from the brain of male rats, Wistar strain) (B. M. Baron, B. W. Siegel, B. L. Harrison, R. S. Gross, C. and P. Towers, Journal of Pharmacology and Experimental Therapeutics, Vol. 279, p. 62, 1996).
For this purpose, Cortex and Hippocampus from freshly removed rats' brains were dissected, homogenized in 5 mmol/l TRIS-acetate buffer, 0.32 mol/l sacharose pH 7.4 (10 ml/g fresh weight) with a Potter homogenizer (made by Braun/Melsungen, 10 piston strokes at 500 rpm) while cooling with ice and subsequently centrifuged for 10 minutes at 1,000 g and 4° C. The first supernatant material was collected and the sediment homogenized again with […] TRIS-acetate buffer, 0.32 mol/l safcharose pH 7.4 (5 ml/g original fresh weight) using the Potter homogenizer (10 piston strokes at 500 rpm) while cooling with ice and centrifuged for 10 minutes at 1,000 g and 4° C. The resultant supernatant material was combined with the supernatant material from the first centrifugation and centrifuged at 17,000 g for 20 minutes at 4° C. The supernatant material after this centrifugation was discarded, the membrane sediment taken up with 5 mmol/l TRIS-acetate buffer pH 8.0 (20 ml/g original fresh weight) and homogenized with 10 piston strokes at 500 rpm.
The membrane homogenate was then incubated for 1 hour at 4° C. and centrifuged for 30 minutes at 50,000 g and 4° C. The supernatant material was discarded and the centrifuge tube with the membrane sediment sealed with parafilm and frozen for 24 hours at −20° C. The membrane sediment was thawed on the following day, taken up with ice-cold 5 mmol/l TRIS-acetate buffer, 0.1% saponin (w/v) pH 7.0 (10 ml/g original fresh weight), homogenized with 10 piston strokes at 500 rpm and subsequently centrifuged for 20 minutes at 50,00 g and 4° C. The resultant supernatant material was discarded, the sediment taken up in a small volume with 5 mmol/l TRIS-acetate buffer pH 7.0 (about 2 ml/g original fresh weight) and homogenized again with 10 piston strokes at 500 rpm. After determining the protein content, the membrane homogenate was adjusted to a protein concentration of 10 mg protein/ml using 5 mmol/l TRIS-acetate buffer pH 7.0 and frozen in aliquots for testing.
For the receptor binding test, aliquots were thawed, diluted 1:10 with 5 mmol/l TRIS-acetate buffer pH 7.0, homogenized with 10 piston strokes at 500 rpm using the potter homogenizer (10 piston strokes at 500 rpm) while cooling with ice and centrifuged for 60 minutes at 55,000 g at 4° C. The supernatant material was decanted, the membrane sediment adjusted to a protein concentration of 1 mg/ml with ice-cold 50 mmol/l TRIS-acetate buffer pH 7.0, homogenized again with 10 piston strokes at 500 rpm and kept in suspension in the ice bath while stirring on a magnetic stirrer. 100 μl of this membrane homogenate per 1 ml of feedstock was used in each case in the receptor binding test (0.1 mg protein/ml in the final batch).
In the binding test, 50 mmol/l TRIS-acetate buffer pH 7.0 was used as buffer and 1 nmol/l (^3H)-MDL 105.519 (B. M. Baron et al 1996) was used as radioactive ligand. The proportion of unspecific binding was determined in the presence of 1 mmol/l glycine.
In further batches, the compounds according to the invention were added in concentration series and the displacement of the radioactive ligand from its specific binding to the glycine binding site of the NMDA receptor channel determined. The respective triple batches were incubated for 120 minutes at 4° C. and then harvested to determine the radioactive ligands bound to the membrane homogenate by filtration through glass fiber filter mats (GF/B). […]

Compared with O=C(O)C1CC(c2cccc(Cl)c2)c2c(Cl)cc(Cl)cc2N1 (centres unmarked) [Example 98, 5,7-dichloro-4-(3-chlorophenyl)-1,2,3,4-tetrahydroquinoline-2-carboxylic acid], O=C(O)C1CC(c2cccc(Br)c2)c2c(Cl)cc(Cl)cc2N1 (centres unmarked) [Example 38, 4-(3-bromophenyl)-5,7-dichloro-1,2,3,4-tetrahydroquinoline-2-carboxylic Acid] is higher in inhibition at 10 µM: 51% for the first, 72% for the second.

Compared with COc1cc(C2c3cc(SC)ccc3NC(C(=O)O)C2C)ccc1O (centres unmarked) [Example 93, 4-(4-hydroxy-3-methoxyphenyl)-3-methyl-6-methylsulphanyl-1,2,3,4-tetrahydroquinoline-2-carboxylic acid], COc1ccc(C2c3cc(Oc4ccccc4)ccc3NC(C(=O)O)C2C)cc1 (centres unmarked) [Example 82, 4-(4-methoxyphenyl)-3-methyl-6-phenoxy-1,2,3,4-tetrahydroquinoline-2-carboxylic acid] is higher in inhibition at 10 µM: 44% for the first, 96% for the second.

Compared with N#Cc1ccc2c(c1)C(c1ccccc1Cl)CC(C(=O)O)N2 (centres unmarked) [Example 89, 4-(2-chlorophenyl)-6-cyano-1,2,3,4-tetrahydroquinoline-2-carboxylic acid], CCOC(=O)C1CC(c2ccccc2Cl)c2cc(Cl)ccc2N1 (centres unmarked) [Example 52, 6-chloro-4-(2-chlorophenyl)-1,2,3,4-tetrahydroquinoline-2-carboxylic Acid Ethyl Ester] is lower in inhibition at 10 µM: 30% for the first, 22% for the second.

Going from Cc1cccc(C2CC(C(=O)O)Nc3c(Cl)cc(F)cc32)c1 (centres unmarked) [Example 84, 8-chloro-6-fluoro-4-m-tolyl-1,2,3,4-tetrahydroquinoline-2-carboxylic acid] to O=C(O)C1CC(c2ccc3ccccc3c2)c2cc(F)cc(Cl)c2N1 (centres unmarked) [Example 81, 8-chloro-6-fluoro-4-naphthalene-2-yl-1,2,3,4-tetrahydroquinoline-2-carboxylic acid], the inhibition at 10 µM falls from 79% to 66%.

First: CCOC(=O)C1CC(c2ccccc2)c2c(Cl)cc(Cl)cc2N1 (centres unmarked) [Example 14, 5,7-dichloro-4-phenyl-1,2,3,4-tetrahydroquinoline-2-carboxylic Acid Ethyl Ester]
Second: O=C(O)C1CC(c2ccccc2)c2c(Cl)cc(Cl)cc2N1 (centres unmarked) [Example 15, 5,7-dichloro-4-phenyl-1,2,3,4-tetrahydroquinoline-2-carboxylic Acid]
The inhibition at 10 µM of the first is lower: 38% for the first, 75% for the second.

First: O=C(O)C1CC(c2ccc(Cl)cc2)c2c(Cl)cc(Cl)cc2N1 (centres unmarked) [Example 97, 5,7-dichloro-4-(4-chlorophenyl)-1,2,3,4-tetrahydroquinoline-2-carboxylic acid]
Second: O=C(O)C1CC(c2ccc(F)cc2)c2c(Cl)cc(Cl)cc2N1 (centres unmarked) [Example 31, 5,7-dichloro-4-(4-fluorophenyl)-1,2,3,4-tetrahydroquinoline-2-carboxylic Acid]
The inhibition at 10 µM of the first is lower: 39% for the first, 58% for the second.

Going from CCOC(=O)C1CC(c2ccccc2C)c2c(Cl)cc(Cl)cc2N1 (centres unmarked) [Example 16, 5,7-dichloro-4-o-tolyl-1,2,3,4-tetrahydroquinoline-2-carboxylic Acid Ethyl Ester] to CCOC(=O)C1CC(c2ccccc2Br)c2c(Cl)cc(Cl)cc2N1 (centres unmarked) [Example 36, 4-(2-bromophenyl)-5,7-dichloro-1,2,3,4-tetrahydroquinoline-2-carboxylic Acid Ethyl Ester], the inhibition at 10 µM rises from 35% to 46%.

Going from COc1ccc(C2c3cc(C#N)ccc3NC(C(=O)O)C2c2ccc(OC)cc2)cc1 (centres unmarked) [Example 94, 6-cyano-3,4-bis-(4-methoxyphenyl)-1,2,3,4-tetrahydroquinoline-2-carboxylic acid] to CCOC(=O)C1Nc2c(Cl)cc(F)cc2C(c2ccc(OC)cc2)C1c1ccc(OC)cc1 (centres unmarked) [Example 95, 8-chloro-6-fluoro-3,4-bis-(4-methoxyphenyl)-1,2,3,4-tetrahydroquinoline-2-carboxylic acid ethyl ester], the inhibition at 10 µM falls from 55% to 33%.

First: CCOC(=O)C1CC(c2ccc(OCc3ccccc3)c(OC)c2)c2cc(C(C)(C)C)ccc2N1 (centres unmarked) [Example 96, 4-(4-benzyloxy-3-methoxyphenyl)-6-tert-butyl-1,2,3,4-tetrahydroquinoline-2-carboxylic acid ethyl ester]
Second: CCOC(=O)C1CC(c2ccccc2Br)c2cc(Cl)ccc2N1 (centres unmarked) [Example 54, 6-chloro-4-(2-bromophenyl)-1,2,3,4-tetrahydroquinoline-2-carboxylic Acid Ethyl Ester]
The inhibition at 10 µM of the first is higher: 29% for the first, 22% for the second.

First: CCOC(=O)C1Nc2cc(Cl)cc(Cl)c2C2C3CCC(C3)C12 (centres unmarked) [Example 60, 1,3-dichloro-7,10-methano-5,6,6a,7,8,9,10,10a-octahydrophenanthridine-6-carboxylic Acid Ethyl Ester]
Second: CCOC(=O)C1Nc2cc(Cl)cc(Cl)c2C2CCCC12 (centres unmarked) [Example 59, 7,9-dichloro-2,3,3a,4,5,9b-hexahydro-1H-cyclopenta[c]quinoline-4-carboxylic Acid Ethyl Ester]
The inhibition at 10 µM of the first is higher: 23% for the first, 14% for the second.

Going from O=C(O)C1CC(c2ccccc2Cl)c2c(Cl)cc(Cl)cc2N1 (centres unmarked) [Example 32, 5,7-dichloro-4-(2-chlorophenyl)-1,2,3,4-tetrahydroquinoline-2-carboxylic Acid] to Cc1ccc(C2CC(C(=O)O)Nc3cc(Cl)cc(Cl)c32)c(C)c1 (centres unmarked) [Example 22, 5,7-dichloro-4-(2,4-dimethylphenyl)-1,2,3,4-tetrahydroquinoline-2-carboxylic Acid], the inhibition at 10 µM falls from 92% to 68%.

Going from CCOC(=O)C1CC(c2cccc(C)c2)c2c(Cl)cc(Cl)cc2N1 (centres unmarked) [Example 17, 5,7-dichloro-4-m-tolyl-1,2,3,4-tetrahydroquinoline-2-carboxylic Acid Ester] to CCOC(=O)C1CC(c2cccc(F)c2)c2c(Cl)cc(Cl)cc2N1 (centres unmarked) [Example 28, 5,7-dichloro-4-(3-fluorophenyl)-1,2,3,4-tetrahydroquinoline-2-carboxylic Acid Ethyl Ester], the inhibition at 10 µM rises from 21% to 35%.

First: O=C(O)C1CC(c2ccccc2Br)c2cc(Br)cc(Cl)c2N1 (centres unmarked) [Example 92, 6-bromo-4-(2-bromophenyl)-8-chloro-1,2,3,4-tetrahydroquinoline-2-carboxylic acid]
Second: Cc1ccc(C2CC(C(=O)O)Nc3c(Cl)cc(Br)cc32)c(C)c1 (centres unmarked) [Example 91, 6-bromo-8-chloro-4-(2,4-dimethylphenyl)-1,2,3,4-tetrahydroquinoline-2-carboxylic acid]
The inhibition at 10 µM of the first is higher: 62% for the first, 46% for the second.

First: CCOC(=O)C1Nc2ccc(C#N)cc2C2c3ccccc3CC12 (centres unmarked) [Example 88, 2-cyano-5,6a,7,11b-tetrahydro-6H-indeno[2,1-c]quinoline-6-carboxylic acid ethyl ester]
Second: CCOC(=O)C1Nc2cc(Cl)cc(Cl)c2C2c3ccccc3CC12 (centres unmarked) [Example 61]
The inhibition at 10 µM of the first is higher: 34% for the first, 15% for the second.

CCOC(=O)C1CC(c2ccc(C)cc2C)c2c(Cl)cc(Cl)cc2N1 (centres unmarked) [Example 21, 5,7-dichloro-4-(2,4-dimethylphenyl)-1,2,3,4-tetrahydroquinoline-2-carboxylic Acid Ethyl Ester] and CCOC(=O)C1CC(c2ccc(C)cc2)c2c(Cl)cc(Cl)cc2N1 (centres unmarked) [Example 19, 5,7-dichloro-4-p-tolyl-1,2,3,4-tetrahydroquinoline-2-carboxylic Acid Ethyl Ester] are the same in inhibition at 10 µM: 26% for the first, 26% for the second.

Compared with CCOC(=O)C1CC(c2ccc(F)cc2)c2c(Cl)cc(Cl)cc2N1 (centres unmarked) [Example 30, 5,7-dichloro-4-(4-fluorophenyl)-1,2,3,4-tetrahydroquinoline-2-carboxylic Acid Ethyl Ester], O=C(O)C1Nc2cc(Cl)cc(Cl)c2C2c3ccccc3CC12 (centres unmarked) [Example 101, 1,3-dichloro-5,6a,7,11b-tetrahydro-6H-indeno[2,1-c]quinoline-6-carboxylic acid] is higher in inhibition at 10 µM: 32% for the first, 98% for the second.
